Results: BindingDB's records for doi:10.1021/jm00006a008 (Glaxo Research Institute, 1995)
pIC50: −log10 of the molar value.

assay: Inhibition of bovine topoisomerase I, using cleavable complex assay.

Question: With CCC1(O)C(=O)OCc2c1cc1n(c2=O)C/C(=C2\C(=O)Nc3c2cc(F)c(F)c3F)C1=O (stereo not drawn) [4-Ethyl-4-hydroxy-7-[5,6,7-trifluoro-2-oxo-1,2-dihydro-indol-(3E)-ylidene]-1,4,7,8-tetrahydro-pyrano[3,4-f]indolizine-3,6,10-trione] as the compound, how does the pIC50 read?
Answer: The pIC50 was under 4.00.

Question: With CC[C@]1(O)C(=O)OCc2c1cc1n(c2=O)C/C(=C2\C(=O)Nc3ccc(F)cc32)C1=O [(R)-4-Ethyl-7-[5-fluoro-2-oxo-1,2-dihydro-indol-(3E)-ylidene]-4-hydroxy-1,4,7,8-tetrahydro-pyrano[3,4-f]indolizine-3,6,10-trione] as the compound, how does the pIC50 read?
Answer: Its pIC50 is 5.96.

Question: With CC[C@@]1(O)C(=O)OCc2c1cc1n(c2=O)C/C(=C2\C(=O)Nc3ccc(F)cc32)C1=O [(S)-4-Ethyl-7-[5-fluoro-2-oxo-1,2-dihydro-indol-(3E)-ylidene]-4-hydroxy-1,4,7,8-tetrahydro-pyrano[3,4-f]indolizine-3,6,10-trione] as the compound, how does the pIC50 read?
Answer: Its pIC50 is under 4.00.

Question: With CCC1(O)C(=O)OCc2c1cc1n(c2=O)C/C(=C2\C(=O)Nc3ccc(F)cc32)C1=O (stereo not drawn) [4-Ethyl-7-[5-fluoro-2-oxo-1,2-dihydro-indol-(3E)-ylidene]-4-hydroxy-1,4,7,8-tetrahydro-pyrano[3,4-f]indolizine-3,6,10-trione] as the compound, how does the pIC50 read?
Answer: The pIC50 was 5.92.

Question: With CC[C@]1(O)C(=O)OCc2c1cc1n(c2=O)C/C(=C2\C(=O)Nc3c(C)cccc32)C1=O [(R)-4-Ethyl-4-hydroxy-7-[7-methyl-2-oxo-1,2-dihydro-indol-(3E)-ylidene]-1,4,7,8-tetrahydro-pyrano[3,4-f]indolizine-3,6,10-trione] as the compound, how does the pIC50 read?
Answer: The pIC50 was under 4.00.

Question: With CC[C@]1(O)C(=O)OCc2c1cc1n(c2=O)C/C(=C2\C(=O)Nc3c2cc(C)cc3[N+](=O)[O-])C1=O [(R)-4-Ethyl-4-hydroxy-7-[5-methyl-7-nitro-2-oxo-1,2-dihydro-indol-(3E)-ylidene]-1,4,7,8-tetrahydro-pyrano[3,4-f]indolizine-3,6,10-trione] as the compound, how does the pIC50 read?
Answer: The pIC50 was under 4.00.

Question: With CC[C@]1(O)C(=O)OCc2c1cc1n(c2=O)C/C(=C2\C(=O)Nc3cc(F)c(F)cc32)C1=O [(R)-7-[5,6-Difluoro-2-oxo-1,2-dihydro-indol-(3E)-ylidene]-4-ethyl-4-hydroxy-1,4,7,8-tetrahydro-pyrano[3,4-f]indolizine-3,6,10-trione] as the compound, how does the pIC50 read?
Answer: The pIC50 was 5.89.

Question: With CC[C@]1(O)C(=O)OCc2c1cc1n(c2=O)C/C(=C2\C(=O)Nc3cc(SC)ccc32)C1=O [(R)-4-Ethyl-4-hydroxy-7-[6-methylsulfanyl-2-oxo-1,2-dihydro-indol-(3E)-ylidene]-1,4,7,8-tetrahydro-pyrano[3,4-f]indolizine-3,6,10-trione] as the compound, how does the pIC50 read?
Answer: The pIC50 was under 4.00.

Question: With CC[C@]1(O)C(=O)OCc2c1cc1n(c2=O)C/C(=C2\C(=O)Nc3ccccc32)C1=O [(R)-4-Ethyl-4-hydroxy-7-[2-oxo-1,2-dihydro-indol-(3E)-ylidene]-1,4,7,8-tetrahydro-pyrano[3,4-f]indolizine-3,6,10-trione] as the compound, how does the pIC50 read?
Answer: Its pIC50 is 5.40.

Question: With CC[C@]1(O)C(=O)OCc2c1cc1n(c2=O)C/C(=C2\C(=O)Nc3cc(OC(F)(F)F)ccc32)C1=O [(R)-4-Ethyl-4-hydroxy-7-[2-oxo-6-trifluoromethoxy-1,2-dihydro-indol-(3E)-ylidene]-1,4,7,8-tetrahydro-pyrano[3,4-f]indolizine-3,6,10-trione] as the compound, how does the pIC50 read?
Answer: Its pIC50 is under 4.00.

Question: With CC[C@]1(O)C(=O)OCc2c1cc1n(c2=O)C/C(=C2\C(=O)Nc3ccc(Br)cc32)C1=O [(R)-7-[5-Bromo-2-oxo-1,2-dihydro-indol-(3E)-ylidene]-4-ethyl-4-hydroxy-1,4,7,8-tetrahydro-pyrano[3,4-f]indolizine-3,6,10-trione] as the compound, how does the pIC50 read?
Answer: The pIC50 was under 4.00.

Question: With CCC1(O)C(=O)OCc2c1cc1n(c2=O)C/C(=C2\C(=O)N(C)c3ccccc32)C1=O (stereo not drawn) [4-Ethyl-4-hydroxy-7-[1-methyl-2-oxo-1,2-dihydro-indol-(3E)-ylidene]-1,4,7,8-tetrahydro-pyrano[3,4-f]indolizine-3,6,10-trione] as the compound, how does the pIC50 read?
Answer: Its pIC50 is under 4.00.

Question: With CC[C@]1(O)C(=O)OCc2c1cc1n(c2=O)C/C(=C2\C(=O)Nc3ccc(I)cc32)C1=O [(R)-4-Ethyl-4-hydroxy-7-[5-iodo-2-oxo-1,2-dihydro-indol-(3E)-ylidene]-1,4,7,8-tetrahydro-pyrano[3,4-f]indolizine-3,6,10-trione] as the compound, how does the pIC50 read?
Answer: Its pIC50 is 4.92.

Question: With CCC1(O)C(=O)OCc2c1cc1n(c2=O)C/C(=C2\C(=O)Nc3ccc([N+](=O)[O-])cc32)C1=O (stereo not drawn) [4-Ethyl-4-hydroxy-7-[5-nitro-2-oxo-1,2-dihydro-indol-(3E)-ylidene]-1,4,7,8-tetrahydro-pyrano[3,4-f]indolizine-3,6,10-trione] as the compound, how does the pIC50 read?
Answer: Its pIC50 is under 4.00.

Question: With CCC1(O)C(=O)OCc2c1cc1n(c2=O)C/C(=C2\C(=O)Nc3cc4c(cc32)OCCO4)C1=O (stereo not drawn) [4-Ethyl-4-hydroxy-7-[7-oxo-2,3,6,7-tetrahydro-[1,4]dioxino[2,3-f]indol-(8E)-ylidene]-1,4,7,8-tetrahydro-pyrano[3,4-f]indolizine-3,6,10-trione] as the compound, how does the pIC50 read?
Answer: The pIC50 was 4.53.

Question: With CCC1(O)C(=O)OCc2c1cc1n(c2=O)C/C(=C2\C(=O)Nc3ccc(I)cc32)C1=O (stereo not drawn) [4-Ethyl-4-hydroxy-7-[5-iodo-2-oxo-1,2-dihydro-indol-(3E)-ylidene]-1,4,7,8-tetrahydro-pyrano[3,4-f]indolizine-3,6,10-trione] as the compound, how does the pIC50 read?
Answer: The pIC50 was 4.49.

Question: With CCC1(O)C(=O)OCc2c1cc1n(c2=O)C/C(=C2\C(=O)Nc3cc(OC)ccc32)C1=O (stereo not drawn) [4-Ethyl-4-hydroxy-7-[6-methoxy-2-oxo-1,2-dihydro-indol-(3E)-ylidene]-1,4,7,8-tetrahydro-pyrano[3,4-f]indolizine-3,6,10-trione] as the compound, how does the pIC50 read?
Answer: The pIC50 was under 4.00.

Question: With CCC1(O)C(=O)OCc2c1cc1n(c2=O)C/C(=C2\C(=O)Nc3ccc(Cl)cc32)C1=O (stereo not drawn) [7-[5-Chloro-2-oxo-1,2-dihydro-indol-(3E)-ylidene]-4-ethyl-4-hydroxy-1,4,7,8-tetrahydro-pyrano[3,4-f]indolizine-3,6,10-trione] as the compound, how does the pIC50 read?
Answer: Its pIC50 is under 4.00.

Question: With CCC1(O)C(=O)OCc2c1cc1n(c2=O)C/C(=C2\C(=O)Nc3c2ccc(F)c3C)C1=O (stereo not drawn) [4-Ethyl-7-[6-fluoro-7-methyl-2-oxo-1,2-dihydro-indol-(3E)-ylidene]-4-hydroxy-1,4,7,8-tetrahydro-pyrano[3,4-f]indolizine-3,6,10-trione] as the compound, how does the pIC50 read?
Answer: The pIC50 was under 4.00.

Question: With CC[C@]1(O)C(=O)OCc2c1cc1n(c2=O)C/C(=C2\C(=O)Nc3c(Cl)cccc32)C1=O [(R)-7-[7-Chloro-2-oxo-1,2-dihydro-indol-(3E)-ylidene]-4-ethyl-4-hydroxy-1,4,7,8-tetrahydro-pyrano[3,4-f]indolizine-3,6,10-trione] as the compound, how does the pIC50 read?
Answer: The pIC50 was under 4.00.

Question: With CCC1(O)C(=O)OCc2c1cc1n(c2=O)C/C(=C2\C(=O)Nc3cc(F)c(F)cc32)C1=O (stereo not drawn) [7-[5,6-Difluoro-2-oxo-1,2-dihydro-indol-(3E)-ylidene]-4-ethyl-4-hydroxy-1,4,7,8-tetrahydro-pyrano[3,4-f]indolizine-3,6,10-trione] as the compound, how does the pIC50 read?
Answer: Its pIC50 is 5.82.

Question: With CCC1(O)C(=O)OCc2c1cc1n(c2=O)C/C(=C2\C(=O)Nc3ccccc32)C1=O (stereo not drawn) [4-Ethyl-4-hydroxy-7-[2-oxo-1,2-dihydro-indol-(3E)-ylidene]-1,4,7,8-tetrahydro-pyrano[3,4-f]indolizine-3,6,10-trione] as the compound, how does the pIC50 read?
Answer: Its pIC50 is 5.24.

Question: With CC[C@]1(O)C(=O)OCc2c1cc1n(c2=O)C/C(=C2\C(=O)Nc3ccc(C)cc32)C1=O [(R)-4-Ethyl-4-hydroxy-7-[5-methyl-2-oxo-1,2-dihydro-indol-(3E)-ylidene]-1,4,7,8-tetrahydro-pyrano[3,4-f]indolizine-3,6,10-trione] as the compound, how does the pIC50 read?
Answer: The pIC50 was 5.74.

Question: With CC[C@@]1(O)C(=O)OCc2c1cc1n(c2=O)C/C(=C2\C(=O)Nc3ccccc32)C1=O [(S)-4-Ethyl-4-hydroxy-7-[2-oxo-1,2-dihydro-indol-(3E)-ylidene]-1,4,7,8-tetrahydro-pyrano[3,4-f]indolizine-3,6,10-trione] as the compound, how does the pIC50 read?
Answer: The pIC50 was under 4.00.

assay: Inhibitory concentration against topoisomerase I obtained from calf thymus

Question: With CCC1(O)C(=O)OCc2c1cc1n(c2=O)Cc2c-1nc1cccc(I)c1c2C(=O)O (stereo not drawn) [4-Ethyl-4-hydroxy-10-iodo-3,13-dioxo-3,4,12,13-tetrahydro-1H-2-oxa-6,12a-diaza-dibenzo[b,h]fluorene-11-carboxylic acid] as the compound, how does the pIC50 read?
Answer: Its pIC50 is 5.89.

Question: With CCC1(O)C(=O)OCc2c1cc1n(c2=O)Cc2c-1nc1cc3c(cc1c2C(=O)O)OCCO3 (stereo not drawn) [8-ethyl-8-hydroxy-9,12-dioxo-2,3,8,9,12,14-hexahydro-11H-[1,4]dioxino[2,3-g]pyrano[3',4':6,7]indolizino[1,2-b]quinoline-15-carboxylic acid] as the compound, how does the pIC50 read?
Answer: The pIC50 was 4.62.

Question: With CC[C@]1(O)C(=O)OCc2c1cc1n(c2=O)Cc2c-1nc1ccccc1c2C(=O)O [(R)-4-Ethyl-4-hydroxy-3,13-dioxo-3,4,12,13-tetrahydro-1H-2-oxa-6,12a-diaza-dibenzo[b,h]fluorene-11-carboxylic acid] as the compound, how does the pIC50 read?
Answer: Its pIC50 is 5.68.

Question: With CCC1(O)C(=O)OCc2c1cc1n(c2=O)Cc2c-1nc1ccc(F)cc1c2C(=O)O (stereo not drawn) [4-Ethyl-9-fluoro-4-hydroxy-3,13-dioxo-3,4,12,13-tetrahydro-1H-2-oxa-6,12a-diaza-dibenzo[b,h]fluorene-11-carboxylic acid] as the compound, how does the pIC50 read?
Answer: The pIC50 was 5.49.

Question: With CCC1(O)C(=O)OCc2c1cc1n(c2=O)Cc2c-1nc1ccc(I)cc1c2C(=O)O (stereo not drawn) [4-Ethyl-4-hydroxy-9-iodo-3,13-dioxo-3,4,12,13-tetrahydro-1H-2-oxa-6,12a-diaza-dibenzo[b,h]fluorene-11-carboxylic acid] as the compound, how does the pIC50 read?
Answer: The pIC50 was 5.64.

Question: With CC[C@@]1(O)C(=O)OCc2c1cc1n(c2=O)Cc2c-1nc1ccc(F)cc1c2C(=O)O [(S)-4-Ethyl-9-fluoro-4-hydroxy-3,13-dioxo-3,4,12,13-tetrahydro-1H-2-oxa-6,12a-diaza-dibenzo[b,h]fluorene-11-carboxylic acid] as the compound, how does the pIC50 read?
Answer: Its pIC50 is under 4.00.

Question: With CC[C@]1(O)C(=O)OCc2c1cc1n(c2=O)Cc2c-1nc1ccc(C)cc1c2C(=O)O [(R)-4-Ethyl-4-hydroxy-9-methyl-3,13-dioxo-3,4,12,13-tetrahydro-1H-2-oxa-6,12a-diaza-dibenzo[b,h]fluorene-11-carboxylic acid] as the compound, how does the pIC50 read?
Answer: Its pIC50 is 5.72.

Question: With CCC1(O)C(=O)OCc2c1cc1n(c2=O)Cc2c-1nc1cc(F)c(F)cc1c2C(=O)O (stereo not drawn) [4-Ethyl-8,9-difluoro-4-hydroxy-3,13-dioxo-3,4,12,13-tetrahydro-1H-2-oxa-6,12a-diaza-dibenzo[b,h]fluorene-11-carboxylic acid] as the compound, how does the pIC50 read?
Answer: The pIC50 was 5.82.

Question: With CCOC(=O)c1c2c(nc3cc4c(cc13)OCCO4)-c1cc3c(c(=O)n1C2)COC(=O)C3(O)CC (stereo not drawn) [ethyl 8-ethyl-8-hydroxy-9,12-dioxo-2,3,8,9,12,14-hexahydro-11H-[1,4]dioxino[2,3-g]pyrano[3',4':6,7]indolizino[1,2-b]quinoline-15-carboxylate] as the compound, how does the pIC50 read?
Answer: The pIC50 was 6.15.
